Where “and” joins values, the source holds several entries; their conditions need not be identical. Equal values may be shown once. Toxic doses and inconclusive results are not listed. How the source made its calls: active means survival T/C of 150% or more; inactive means T/C below 125% in these data.
System: BDF1 mice, P388 leukemia ip, median survival T/C
Test: NCI In Vivo Anticancer Drug Screen. Data for tumor model P388 Leukemia (intraperitoneal) in B6D2F1 (BDF1) mice
Settings: endpoint: median survival time, higher = longer survival
Outline: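 Steps: implant the tumour, treat one group with compound and another with vehicle, record survival, then divide treated by control.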

[1] = dose: 100.0 mg/kg/injection, schedule: Q04DX003 (ip), vehicle: Klucel (hydroxypropylcellulose) (HPC)
[2] = dose: 200.0 mg/kg/injection, schedule: Q01DX009 (ip), vehicle: Klucel (hydroxypropylcellulose) (HPC)
[3] = dose: 200.0 mg/kg/injection, schedule: Q04DX003 (ip), vehicle: Klucel (hydroxypropylcellulose) (HPC)
[4] = dose: 50.0 mg/kg/injection, schedule: Q01DX009 (ip), vehicle: Klucel (hydroxypropylcellulose) (HPC)
[5] = dose: 100.0 mg/kg/injection, schedule: Q01DX009 (ip), vehicle: Klucel (hydroxypropylcellulose) (HPC)
[6] = dose: 6.25 mg/kg/injection, schedule: Q01DX009 (ip), vehicle: Klucel (hydroxypropylcellulose) (HPC)
[7] = dose: 12.5 mg/kg/injection, schedule: Q01DX009 (ip), vehicle: Klucel (hydroxypropylcellulose) (HPC)
[8] = dose: 25.0 mg/kg/injection, schedule: Q01DX009 (ip), vehicle: Klucel (hydroxypropylcellulose) (HPC)

Measured: T/C

CC(=O)c1c(C)[nH]c(C(=O)OC(C)(C)C)c1C
inactive: dose: 100.0 mg/kg/injection, schedule: Q01DX001 (ip), vehicle: Klucel (hydroxypropylcellulose) (HPC) 113 % of control | dose: 200.0 mg/kg/injection, schedule: Q01DX001 (ip), vehicle: Klucel (hydroxypropylcellulose) (HPC) 100 % of control | dose: 400.0 mg/kg/injection, schedule: Q01DX001 (ip), vehicle: Klucel (hydroxypropylcellulose) (HPC) 109 % of control

O=CC(/C=N\Nc1ccccc1)=N/Nc1ccccc1
inactive: dose: 20.0 mg/kg/injection, schedule: Q01DX009 (ip), vehicle: saline with Tween-80 100 % of control | dose: 80.0 mg/kg/injection, schedule: Q01DX009 (ip), vehicle: saline with Tween-80 89 % of control

COc1cccc2c1C(=O)c1c(O)c3c(c(O)c1C2=O)C[C@@](O)(C(=O)O)C[C@@H]3OC1CC(N)C(O)C(C)O1 (some centres undefined)
inactive: dose: 1.56 mg/kg/injection, schedule: Q01DX009 (ip), vehicle: water 100 % of control | dose: 3.12 mg/kg/injection, schedule: Q01DX009 (ip), vehicle: water 107 % of control and 109 % of control | dose: 6.25 mg/kg/injection, schedule: Q01DX009 (ip), vehicle: water 93 % of control

CCN(CC)C(=O)COc1cc2c(O)c3c(O)c(C)c4c(c13)C(=O)C(C)(OC=CC(OC)C(C)C(OC(C)=O)C(C)C(O)C(C)C(O)C(C)C=CC=C(C)C(=O)N2)O4 (centres undefined)
inactive: dose: 50.0 mg/kg/injection, schedule: Q01DX009 (ip), vehicle: saline 109 % of control | dose: 100.0 mg/kg/injection, schedule: Q01DX009 (ip), vehicle: saline 109 % of control | dose: 200.0 mg/kg/injection, schedule: Q01DX009 (ip), vehicle: saline 123 % of control

COc1ccc(OC)c([N+](=O)[O-])c1
inactive: [1] 100 % of control | [2] 95 % of control | [3] 95 % of control | dose: 400.0 mg/kg/injection, schedule: Q01DX009 (ip), vehicle: Klucel (hydroxypropylcellulose) (HPC) 90 % of control | dose: 400.0 mg/kg/injection, schedule: Q04DX003 (ip), vehicle: Klucel (hydroxypropylcellulose) (HPC) 100 % of control

CC(O)C(O)C(N)CC=O (centres undefined)
inactive: dose: 1.25 mg/kg/injection, schedule: Q01DX001 (ip), vehicle: saline 100 % of control and 110 % of control | dose: 2.5 mg/kg/injection, schedule: Q01DX001 (ip), vehicle: saline 100 % of control and 110 % of control | dose: 5.0 mg/kg/injection, schedule: Q01DX001 (ip), vehicle: saline 100 % of control and 110 % of control | dose: 10.0 mg/kg/injection, schedule: Q01DX001 (ip), vehicle: saline 100 % of control and 105 % of control

Cc1cc(=O)c2cccc(C)c2[nH]1
inactive: [4] 96 % of control | [5] 96 % of control | [1] 95 % of control | [2] 92 % of control | [3] 91 % of control

CC1(C)OC2(C)CCC1C(O)C2N1CCCCC1 (centres undefined)
inactive: dose: 50.0 mg/kg/injection, schedule: Q01DX005 (ip), vehicle: saline with Tween-80 108 % of control | dose: 100.0 mg/kg/injection, schedule: Q01DX005 (ip), vehicle: saline with Tween-80 95 % of control | dose: 200.0 mg/kg/injection, schedule: Q01DX005 (ip), vehicle: saline with Tween-80 106 % of control

COc1ccc(/C=C2\C(=O)C(c3ccccc3)N(c3ccccc3)C2=O)cc1 (centres undefined)
inactive: dose: 400.0 mg/kg/injection, schedule: Q04DX002 (ip), vehicle: saline with Tween-80 88 % of control

O=S1(=O)C2CCCCC2(N2CCOCC2)C1c1ccccc1 (centres undefined)
inactive: dose: 100.0 mg/kg/injection, schedule: Q04DX003 (ip), vehicle: other 100 % of control | dose: 178.0 mg/kg/injection, schedule: Q04DX003 (ip), vehicle: other 109 % of control | dose: 200.0 mg/kg/injection, schedule: Q04DX003 (ip), vehicle: other 104 % of control | dose: 266.0 mg/kg/injection, schedule: Q04DX003 (ip), vehicle: other 104 % of control | dose: 400.0 mg/kg/injection, schedule: Q04DX003 (ip), vehicle: other 100 % of control

CC(C)=CCc1c(O)ccc(C(=O)/C=C/c2ccccc2)c1O
inactive: dose: 3.12 mg/kg/injection, schedule: Q01DX009 (ip), vehicle: Klucel (hydroxypropylcellulose) (HPC) 102 % of control | [6] 106 % of control | [7] 116 % of control | [8] 100 % of control | [4] 90 % of control | [5] 90 % of control

O=CNC(Cc1ccc(N(CCCl)CCCl)cc1)C(=O)O (centres undefined)
inactive: dose: 1.1 mg/kg/injection, schedule: Q01DX009 (ip), vehicle: Klucel (hydroxypropylcellulose) (HPC) 107 % of control | dose: 1.46 mg/kg/injection, schedule: Q04DX003 (ip), vehicle: saline 104 % of control | dose: 1.56 mg/kg/injection, schedule: Q01DX009 (ip), vehicle: saline 118 % of control | dose: 1.7 mg/kg/injection, schedule: Q01DX009 (ip), vehicle: Klucel (hydroxypropylcellulose) (HPC) 107 % of control | dose: 2.2 mg/kg/injection, schedule: Q04DX003 (ip), vehicle: saline 100 % of control | dose: 3.13 mg/kg/injection, schedule: Q01DX009 (ip), vehicle: saline 104 % of control | dose: 3.3 mg/kg/injection, schedule: Q04DX003 (ip), vehicle: saline 118 % of control | dose: 5.0 mg/kg/injection, schedule: Q04DX003 (ip), vehicle: saline 122 % of control | dose: 8.3 mg/kg/injection, schedule: Q04DX003 (ip), vehicle: Klucel (hydroxypropylcellulose) (HPC) 109 % of control | dose: 12.0 mg/kg/injection, schedule: Q04DX003 (ip), vehicle: Klucel (hydroxypropylcellulose) (HPC) 118 % of control | dose: 29.0 mg/kg/injection, schedule: Q04DX003 (ip), vehicle: Klucel (hydroxypropylcellulose) (HPC) 115 % of control | dose: 100.0 mg/kg/injection, schedule: Q04DX003 (ip), vehicle: saline with Tween-80 95 % of control
active: [6] 175 % of control | dose: 6.25 mg/kg/injection, schedule: Q01DX009 (ip), vehicle: saline 181 % of control | dose: 11.0 mg/kg/injection, schedule: Q04DX003 (ip), vehicle: saline 160 % of control | [7] 185 % of control | dose: 16.0 mg/kg/injection, schedule: Q01DX009 (ip), vehicle: Klucel (hydroxypropylcellulose) (HPC) 160 % of control and 200 % of control | dose: 16.5 mg/kg/injection, schedule: Q04DX003 (ip), vehicle: saline 163 % of control and 169 % of control | dose: 23.3 mg/kg/injection, schedule: Q01DX009 (ip), vehicle: Klucel (hydroxypropylcellulose) (HPC) 170 % of control | [8] 230 % of control and 220 % of control | dose: 25.0 mg/kg/injection, schedule: Q04DX003 (ip), vehicle: saline 172 % of control and 200 % of control | dose: 35.0 mg/kg/injection, schedule: Q01DX009 (ip), vehicle: Klucel (hydroxypropylcellulose) (HPC) 245 % of control and 195 % of control | dose: 37.5 mg/kg/injection, schedule: Q04DX003 (ip), vehicle: saline 234 % of control and 186 % of control | dose: 40.0 mg/kg/injection, schedule: Q04DX003 (ip), vehicle: Klucel (hydroxypropylcellulose) (HPC) 204 % of control | dose: 44.0 mg/kg/injection, schedule: Q04DX003 (ip), vehicle: Klucel (hydroxypropylcellulose) (HPC) 240 % of control | [4] 272 % of control | dose: 60.0 mg/kg/injection, schedule: Q04DX003 (ip), vehicle: Klucel (hydroxypropylcellulose) (HPC) 272 % of control | dose: 66.0 mg/kg/injection, schedule: Q04DX003 (ip), vehicle: Klucel (hydroxypropylcellulose) (HPC) 280 % of control | [1] 175 % of control | dose: 132.0 mg/kg/injection, schedule: Q04DX003 (ip), vehicle: Klucel (hydroxypropylcellulose) (HPC) 250 % of control | [3] 185 % of control

NC(=S)N/N=C/c1ccc(N)cn1
active: dose: 3.13 mg/kg/injection, schedule: Q01DX009 (ip), vehicle: saline with Tween-80 160 % of control | dose: 6.25 mg/kg/injection, schedule: Q01DX009 (ip), vehicle: saline with Tween-80 172 % of control and 211 % of control

CC[N+](CC)(CC)CCCCC[N+](CC)(CC)CC
inactive: dose: 6.25 mg/kg/injection, schedule: Q04DX003 (ip), vehicle: water 104 % of control | dose: 12.5 mg/kg/injection, schedule: Q04DX003 (ip), vehicle: water 114 % of control | dose: 25.0 mg/kg/injection, schedule: Q04DX003 (ip), vehicle: water 100 % of control and 114 % of control

O=C1/C(=C/c2ccc(Cl)cc2Cl)CCC/C1=C\c1ccc(Cl)cc1Cl
inactive: dose: 25.0 mg/kg/injection, schedule: Q01DX009 (ip), vehicle: saline with Tween-80 88 % of control | dose: 50.0 mg/kg/injection, schedule: Q01DX009 (ip), vehicle: saline with Tween-80 100 % of control | dose: 100.0 mg/kg/injection, schedule: Q01DX009 (ip), vehicle: saline with Tween-80 88 % of control

— PubChem BioAssay AID328 (DTP/NCI, 2004)
